Test results: patent US11407771B2 (priority 2018, dated 2022)
pIC50: −log10 of the molar value.

Each compound was assayed against T1, MAPK13 (Homo sapiens (Human), UniProt O15264) (assay: biochemical). Conditions: not given.
T1 sequence (O15264 whole entry): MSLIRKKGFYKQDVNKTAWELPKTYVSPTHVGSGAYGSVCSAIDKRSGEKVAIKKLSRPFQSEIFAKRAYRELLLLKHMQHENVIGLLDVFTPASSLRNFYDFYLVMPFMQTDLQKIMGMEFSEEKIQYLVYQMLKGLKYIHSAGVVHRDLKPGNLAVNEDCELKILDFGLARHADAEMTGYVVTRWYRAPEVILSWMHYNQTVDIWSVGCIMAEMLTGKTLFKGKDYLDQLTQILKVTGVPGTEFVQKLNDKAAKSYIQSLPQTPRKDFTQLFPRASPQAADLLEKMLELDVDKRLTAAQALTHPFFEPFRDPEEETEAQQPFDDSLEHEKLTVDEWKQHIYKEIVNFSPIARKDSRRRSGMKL
With `COCC(=O)Nc1cc(Oc2ccc(NC(=O)Nc3cc(C4(C)COC4)nn3-c3ccc(C)cc3)c(F)c2)ccn1` [Compound 267, N-[4-[3-fluoro-4-[[5-(3-methyloxetan-3-yl)-2-(p-tolyl)pyrazol-3-yl]carbamoylamino]phenoxy]-2-pyridyl]-2-methoxy-acetamide] the pIC50 was greater than 6.60.
With `Cc1ccc(-n2nc(C(C)(C)C)cc2NC(=O)Nc2ncc(CCc3ccncc3)s2)cc1` [Compound 270, 1-(5-tert-Butyl-2-p-tolyl-2H-pyrazol-3-yl)-3-[5-(2-pyridin-4-yl-ethyl)-thiazol-2-yl]-urea] the pIC50 was 6.00 to 6.60.
In the case of `Cc1ccc(-n2nc(C3(C)COC3)cc2NC(=O)Nc2ncc(CCc3ccncc3)s2)cc1` [Compound 271], the pIC50 was 6.00 to 6.60.
With `Cc1ccc(-n2nc(C(C)(C)C)cc2NC(=O)Nc2ncc(CCc3ccnc(NC(=O)OCc4ccccc4)c3)s2)cc1` [Compound 277, [4-(2-{2-[3-(5-tert-Butyl-2-p-tolyl-2H-pyrazol-3-yl)-ureido]-thiazol-5-yl}-ethyl)-pyridin-2-yl]-carbamic acid benzyl ester] the pIC50 was 6.00 to 6.60.
With `Cc1ccc(-n2nc(C(C)(C)CO)cc2NC(=O)Nc2ccc(Oc3ccncc3)cc2F)cc1` [Compound 279, 1-[2-Fluoro-4-(pyridin-4-yloxy)-phenyl]-3-[5-(2-hydroxy-1,1-dimethyl-ethyl)-2-p-tolyl-2H-pyrazol-3-yl]-urea] the pIC50 was 6.00 to 6.60.
Work on `Cc1ccc(-n2nc(C(C)(C)CO)cc2NC(=O)Nc2ccc(Oc3ccncc3)cc2)cc1` [Compound 280, 1-[5-(2-Hydroxy-1,1-dimethyl-ethyl)-2-p-tolyl-2H-pyrazol-3-yl]-3-[4-(pyridin-4-yloxy)-phenyl]-urea] yielded a pIC50 of 6.00 to 6.60.

The compounds below were run against T1, MAPK13 (assay: not given). Conditions: read-out: MAPK13 IC50.
Work on `CC(=O)Nc1cc(Oc2ccc(NC(=O)Nc3cc(C(C)(C)C)on3)c(F)c2)ccn1` [Compound 394, N-(4-{4-[3-(5-tert-Butyl-isoxazol-3-yl)-ureido]-3-fluoro-phenoxy}-pyridin-2-yl)-acetamide] yielded a pIC50 of 8.05.
For `CC(=O)Nc1cc(Oc2ccc(NC(=O)Nc3cc(C(C)(C)C)no3)c(F)c2)ccn1` [Compound 395, N-(4-{4-[3-(3-tert-Butyl-isoxazol-5-yl)-ureido]-3-fluoro-phenoxy}-pyridin-2-yl)-acetamide], the pIC50 was 7.96.

Same assay, conditions: read-out: MAPK13 inhibition
`CC(=O)Nc1cc(CCc2ccc(NC(=O)Nc3cc(C(C)(C)C)nn3C)c(F)c2)ccn1` [Compound 361, N-[4-(2-{4-[3-(5-tert-Butyl-2-methyl-2H-pyrazol-3-yl)-ureido]-3-fluoro-phenyl}-ethyl)-pyridin-2-yl]-acetamide] was tested, and the pIC50 was less than 6.00.
With `CCOC(=O)Nc1cc(CCc2cnc(NC(=O)Nc3cc(C(C)(C)C)on3)s2)ccn1` [Compound 364, [4-(2-{2-[3-(5-tert-Butyl-isoxazol-3-yl)-ureido]-thiazol-5-yl}-ethyl)-pyridin-2-yl]-carbamic acid ethyl ester] the pIC50 was greater than 6.60.
With `CC(=O)Nc1cc(CCc2cnc(NC(=O)Nc3cc(C(C)(C)C)on3)s2)ccn1` [Compound 366, N-[4-(2-{2-[3-(5-tert-Butyl-isoxazol-3-yl)-ureido]-thiazol-5-yl}-ethyl)-pyridin-2-yl]-acetamide] the pIC50 was greater than 6.60.
`CC(C)(C)c1cc(NC(=O)Nc2ncc(CCc3ccnc(NC(=O)C4CC4)c3)s2)[nH]n1` [Compound 368, Cyclopropanecarboxylic acid [4-(2-{2-[3-(5-tert-butyl-2H-pyrazol-3-yl)-ureido]-thiazol-5-yl}-ethyl)-pyridin-2-yl]-amide] gave a pIC50 greater than 6.60.
Compound `CC(C)(C)c1cc(NC(=O)Nc2ncc(CCc3ccnc(NC(=O)C4CC4)c3)s2)no1` [Compound 369, Cyclopropanecarboxylic acid [4-(2-{2-[3-(5-tert-butyl-isoxazol-3-yl)-ureido]-thiazol-5-yl}-ethyl)-pyridin-2-yl]-amide] has a pIC50 greater than 6.60.
For `CC(=O)Nc1cc(CCc2ccc(NC(=O)Nc3cc(C(C)(C)C)nn3CC3CC3)c(F)c2)ccn1` [Compound 370, N-[4-(2-{4-[3-(5-tert-Butyl-2-cyclopropylmethyl-2H-pyrazol-3-yl)-ureido]-3-fluoro-phenyl}-ethyl)-pyridin-2-yl]-acetamide], the pIC50 was less than 6.00.
For `CC(=O)Nc1cc(CCc2ccc(NC(=O)Nc3cc(C(C)(C)C)nn3C(C)C)c(F)c2)ccn1` [Compound 371, N-[4-(2-{4-[3-(5-tert-Butyl-2-isopropyl-2H-pyrazol-3-yl)-ureido]-3-fluoro-phenyl}-ethyl)-pyridin-2-yl]-acetamide], the pIC50 was less than 6.00.
`CC(C)(C)c1cc(NC(=O)Nc2ccc(CCc3ccnc(NC(=O)C4CC4)c3)cc2F)n(CC2CC2)n1` [Compound 372, Cyclopropanecarboxylic acid [4-(2-{4-[3-(5-tert-butyl-2-cyclopropylmethyl-2H-pyrazol-3-yl)-ureido]-3-fluoro-phenyl}-ethyl)-pyridin-2-yl]-amide] showed a pIC50 of less than 6.00.
In the case of `CC(C)(C)c1cc(NC(=O)Nc2ccc(CCc3ccnc(NC(=O)C4CC4)c3)cc2F)on1` [Compound 374, Cycloproprinecarboxylic acid [4-(2-{4-[3-(3-tert-butyl-isoxazol-5-yl)-ureido]-3-fluoro-phenyl}-ethyl)-pyridin-2-yl]-amide], the pIC50 was less than 6.00.
In the case of `CC(C)n1nc(C(C)(C)C)cc1NC(=O)Nc1ccc(CCc2ccnc(NC(=O)C3CC3)c2)cc1F` [Compound 375, Cyclopropanecarboxylic acid [4-(2-{4-[3-(5-tert-butyl-2-isopropyl-2H-pyrazol-3-yl)-ureido]-3-fluoro-phenyl}-ethyl)-pyridin-2-yl]-amide], the pIC50 was less than 6.00.
`CC(C)(C)c1cccc(NC(=O)Nc2ccc(CCc3ccnc(NC(=O)C4CC4)c3)cc2F)c1` [Compound 376, Cyclopropancearboxylic acid [4-(2-{4-[3-(3-tert-butyl-phenyl)-ureido]-3-fluoro-phenyl}-ethyl)-pyridin-2-yl]-amide] showed a pIC50 of less than 6.00.
For `CC(=O)Nc1cc(CCc2ccc(NC(=O)Nc3cccc(C(C)(C)C)c3)c(F)c2)ccn1` [Compound 377, N-[4-(2-{4-[3-(3-tert-Butyl-phenyl)-ureido]-3-fluoro-phenyl}-ethyl)-pyridin-2-yl]-acetamide], the pIC50 was less than 6.00.
Work on `CC(C)(C)c1cc(NC(=O)Nc2ccc(CCc3ccnc(NC(=O)C4CC4)c3)cc2F)no1` [Compound 378, Cyclopropanecarboxylic acid [4-(2-{4-[3-(5-tert-butyl-isoxazol-3-yl)-ureido]-3-fluoro-phenyl}-ethyl)-pyridin-2-yl]-amide] yielded a pIC50 of less than 6.00.
For `CC(=O)Nc1cc(CCc2cnc(NC(=O)Nc3cc(C(C)(C)C)no3)s2)ccn1` [Compound 382], the pIC50 was greater than 6.60.
Work on `CC(C)(C)c1ccc(Cl)c(NC(=O)Nc2ncc(CCc3ccncc3)s2)c1` [Compound 388, 1-(5-tert-Butyl-2-chloro-phenyl)-3-[5-(2-pyridin-4-yl-thiazol)-thiazol-2-yl]-urea] yielded a pIC50 of less than 6.00.
`CC(C)n1nc(C(C)(C)C)cc1NC(=O)Nc1ncc(CCc2ccncc2)s1` [Compound 389, 1-(5-tert-Butyl-2-isopropyl-2H-pyrazol-3-yl)-3-[5-(2-pyridin-4-yl-ethyl)-thiazol-2-yl]-urea] showed a pIC50 of less than 6.00.
`CC(C)(C)c1cc(NC(=O)Nc2ncc(CCc3ccnc(NC(=O)C4CC4)c3)s2)n(-c2ccc(Cl)cc2)n1` [Compound 390, N-[4-[2-[2-[[5-tert-butyl-2-(4-chlorophenyl)pyrazol-3-yl]carbamoylamino]thiazol-5-yl]ethyl]-2-pyridyl]cyclopropanecarboxamide] showed a pIC50 greater than 6.60.
In the case of `CC(=O)Nc1cc(Oc2ccc(NC(=O)Nc3cc(C(C)(C)C)nn3C(C)C)c(F)c2)ccn1` [Compound 392, N-(4-{4-[3-(5-tert-Butyl-2-isopropyl-2H-pyrazol-3-yl)-ureido]-3-fluoro-phenoxy}-pyridin-2-yl)-acetamide], the pIC50 was greater than 6.60.
In the case of `CC(=O)Nc1cc(Oc2ccc(NC(=O)Nc3cc(C(C)(C)C)on3)c(F)c2)ccn1` [Compound 394, N-(4-{4-[3-(5-tert-Butyl-isoxazol-3-yl)-ureido]-3-fluoro-phenoxy}-pyridin-2-yl)-acetamide], the pIC50 was greater than 6.60.
`CC(=O)Nc1cc(Oc2ccc(NC(=O)Nc3cc(C(C)(C)C)no3)c(F)c2)ccn1` [Compound 395, N-(4-{4-[3-(3-tert-Butyl-isoxazol-5-yl)-ureido]-3-fluoro-phenoxy}-pyridin-2-yl)-acetamide] showed a pIC50 greater than 6.60.
`CC(=O)Nc1cc(Oc2ccc(NC(=O)Nc3cc([Si](C)(C)C)ccc3F)c(F)c2)ccn1` [Compound 399, N-(4-{3-Fluoro-4-[3-(2-fluoro-5-trimethylsilanyl-phenyl)-ureido]-phenoxy}-pyridin-2-yl)-acetamide] showed a pIC50 greater than 6.60.
Work on `CC(=O)Nc1cc(CCc2cnc(NC(=O)Nc3cc([Si](C)(C)C)ccc3F)s2)ccn1` [Compound 400, N-[4-(2-{2-[3-(2-Fluoro-5-trimethylsilanyl-phenyl)-ureido]-thiazol-5-yl}-ethyl)-pyridin-2-yl]-acetamide] yielded a pIC50 greater than 6.60.
In the case of `CC(=O)Nc1cc(COc2ccc(NC(=O)Nc3cc(C(C)(C)C)nn3-c3ccc(C)cc3)c(F)c2)ccn1` [Compound 402, N-(4-{4-[3-(5-tert-Butyl-2-p-tolyl-2H-pyrazol-3-yl)-ureido]-3-fluoro-phenoxymethyl}-pyridin-2-yl)-acetamide], the pIC50 was greater than 6.60.
`CC(=O)Nc1cc(Oc2ccc(NC(=O)Nc3cc(C4CC4)ccc3Cl)c(F)c2)ccn1` [Compound 423, N-(4-{4-[3-(2-Chloro-5-cyclopropyl-phenyl)-ureido]-3-fluoro-phenoxy}-pyridin-2-yl)-acetamide] showed a pIC50 greater than 6.60.
`O=C(CO)Nc1cc(Oc2ccc(NC(=O)Nc3cc(C4CC4)ccc3F)c(F)c2)ccn1` [Compound 424, N-(4-{4-[3-(5-Cyclopropyl-2-fluoro-phenyl)-ureido]-3-fluoro-phenoxy}-pyridin-2-yl)-2-hydroxy-acetamide] was tested, and the pIC50 was greater than 6.60.
`COCCC(=O)Nc1cc(Oc2ccc(NC(=O)Nc3cc(C4CC4)ccc3F)c(F)c2)ccn1` [Compound 425, N-(4-{4-[3-(5-Cyclopropyl-2-fluoro-phenyl)-ureido]-3-fluoro-phenoxy}-pyridin-2-yl)-3 methoxypropionamide] was tested, and the pIC50 was greater than 6.60.
`CC(C)(C)c1ccc(Cl)c(NC(=O)Nc2ccc(Oc3ccnc(NC(=O)CO)c3)cc2F)c1` [Compound 426, N-(4-{4-[3-(5-tert-Butyl-2-chloro-phenyl)-ureido]-3-fluoro-phenoxy}-pyridin-2-yl)-2-hydroxy-acetamide] showed a pIC50 greater than 6.60.
Work on `COCCC(=O)Nc1cc(Oc2ccc(NC(=O)Nc3cc(C(C)(C)C)ccc3Cl)c(F)c2)ccn1` [Compound 427, N-(4-{4-[3-(5-tert-Butyl-2-chloro-phenyl)-ureido]-3-fluoro-phenoxy}-pyridin-2-yl)-3-methoxy-propionamide] yielded a pIC50 greater than 6.60.
For `CC(C)(C)c1ccc(Cl)c(NC(=O)Nc2ccc(Oc3ccnc(N)c3)cc2F)c1` [Compound 428, 1-[4-(2-Amino-pyridin-4-yloxy)-2-fluoro-phenyl]-3-(5-tert-butyl-2-chloro-phenyl)-urea], the pIC50 was less than 6.00.
